Common to all, as to test: relative viability (nuclei count vs DMSO), 5 days (fraction); higher = more cells survive
Compound in test [1]: C=CCc1cccc(/C=N/NC(=O)CN2CCN(Cc3ccccc3)CC2)c1O [PAC-1] + CC(=O)Nc1cccc(-n2c(=O)n(C3CC3)c(=O)c3c(Nc4ccc(I)cc4F)n(C)c(=O)c(C)c32)c1 [Trametinib] (partner 0.02 µM)
The method, boiled down:
(§1)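 A single step with final 0.05% Triton X-100, 1% formaldehyde and 1 ug/ml Hoechst fixed the cells and stained nuclei 5 days after treatment. Lung cancer cell lines in 1536-well plates had been treated by pin tool the day after seeding with one drug alone or a fixed anchor-drug dose plus five library-drug doses (not always all listed) in √10 steps, and nuclei were counted on 4× images. Relative viability is the ratio of nuclei in treated wells to nuclei in vehicle wells, taken as the median of duplicate plates.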

Compound in test [2]: C=CC(=O)Nc1cc(-n2c(=O)ccc3cnc4ccc(-c5ccc(NS(C)(=O)=O)cc5)cc4c32)ccc1C [BMX-IN-1] + COc1cc2c(Oc3ccc(NC(=O)C4(C(=O)Nc5ccc(F)cc5)CC4)cc3F)ccnc2cc1OCCCN1CCOCC1 [Foretinib] (partner 0.25 µM)
The method, boiled down:
as §1

Compound in test [3]: C=CCc1cccc(/C=N/NC(=O)CN2CCN(Cc3ccccc3)CC2)c1O [PAC-1] + O=C(c1cc(Cc2n[nH]c(=O)c3ccccc23)ccc1F)N1CCN(C(=O)C2CC2)CC1 [Olaparib] (partner 8 µM)
Summed up:
as §1

Compound in test [4]: C=CC(=O)N1CCC[C@@H](n2nc(-c3ccc(Oc4ccccc4)cc3)c3c(N)ncnc32)C1 [Ibrutinib] + CC(=O)c1c(C)c2cnc(Nc3ccc(N4CCNCC4)cn3)nc2n(C2CCCC2)c1=O [Palbociclib] (partner 0.5 µM)
The method, boiled down:
as §1

For the cell line NCI-H23, the relative viability in test [1] (first compound 0.02 µM) was found to be 0.308; in test [1] (first compound 0.06325 µM), 0.388; in test [1] (first compound 0.2 µM), 0.336; in test [1] (first compound 2 µM), 0.442; in test [2] (first compound 0.02 µM) it was 1.18; in test [2] (first compound 0.2 µM) it was 0.965. For the same cell line, the relative viability in test [2] (first compound 0.6325 µM) stood at 0.938; in test [2] (first compound 2 µM), 0.999; in test [3] (first compound 0.02 µM), 0.28; in test [3] (first compound 0.06325 µM), 0.284; in test [3] (first compound 0.2 µM), 0.313; in test [3] (first compound 2 µM), 0.352. Also, the relative viability stood at 0.484 in test [4] (first compound 0.005 µM); 0.465 in test [4] (first compound 0.01581 µM); 0.456 in test [4] (first compound 0.05 µM); 0.53 in test [4] (first compound 0.1581 µM); 0.506 in test [4] (first compound 0.5 µM).

For NCI-H322M, the relative viability in test [1] (first compound 0.02 µM) stood at 0.498; in test [1] (first compound 0.06325 µM), 0.575; in test [1] (first compound 0.2 µM), 0.542; in test [1] (first compound 2 µM), 0.503; in test [2] (first compound 0.02 µM), 1.13; in test [2] (first compound 0.2 µM), 0.958. Further, the relative viability was 0.967 in test [2] (first compound 0.6325 µM); 0.941 in test [2] (first compound 2 µM); 0.762 in test [3] (first compound 0.02 µM); 0.782 in test [3] (first compound 0.06325 µM); 0.74 in test [3] (first compound 0.2 µM); 0.834 in test [3] (first compound 2 µM). The relative viability in test [4] (first compound 0.005 µM) came out at 0.472; in test [4] (first compound 0.01581 µM) it was 0.463; in test [4] (first compound 0.05 µM), 0.479; in test [4] (first compound 0.1581 µM), 0.469; in test [4] (first compound 0.5 µM), 0.399.

With NCI-H358, the relative viability is 0.128 in test [1] (first compound 0.02 µM); 0.121 in test [1] (first compound 0.06325 µM); 0.164 in test [1] (first compound 0.2 µM); 0.128 in test [1] (first compound 2 µM); 0.855 in test [2] (first compound 0.02 µM); 0.777 in test [2] (first compound 0.2 µM). The relative viability in test [2] (first compound 0.6325 µM) came to 0.887; in test [2] (first compound 2 µM) it was 0.701; in test [3] (first compound 0.02 µM), 0.581; in test [3] (first compound 0.06325 µM), 0.827; in test [3] (first compound 0.2 µM) it was 0.569; in test [3] (first compound 2 µM) it was 0.37. The relative viability in test [4] (first compound 0.005 µM) came out at 0.121; in test [4] (first compound 0.01581 µM), 0.169; in test [4] (first compound 0.1581 µM), 0.189; in test [4] (first compound 0.5 µM) it was 0.11.

As to NCI-H441, the relative viability in test [1] (first compound 0.02 µM) came out at 0.408; in test [1] (first compound 0.06325 µM), 0.629; in test [1] (first compound 0.2 µM), 0.482; in test [1] (first compound 2 µM), 0.411; in test [2] (first compound 0.02 µM), 1.26; in test [2] (first compound 0.2 µM) it was 1.05. The relative viability in test [2] (first compound 0.6325 µM) came out at 1.14; in test [2] (first compound 2 µM), 0.876; in test [3] (first compound 0.02 µM), 0.468; in test [3] (first compound 0.06325 µM), 0.69; in test [3] (first compound 0.2 µM) it was 0.483; in test [3] (first compound 2 µM), 0.491. Further, the relative viability in test [4] (first compound 0.005 µM) is 0.2; in test [4] (first compound 0.01581 µM), 0.199; in test [4] (first compound 0.05 µM), 0.216; in test [4] (first compound 0.1581 µM), 0.138; in test [4] (first compound 0.5 µM) it was 0.157.

For the cell line NCI-H460, the relative viability in test [1] (first compound 0.02 µM) came out at 0.136; in test [1] (first compound 0.06325 µM), 0.156; in test [1] (first compound 0.2 µM), 0.204; in test [1] (first compound 2 µM) it was 0.286; in test [2] (first compound 0.02 µM) it was 1.22; in test [2] (first compound 0.2 µM), 1.09. Moreover, the relative viability in test [2] (first compound 0.6325 µM) was found to be 1.11; in test [2] (first compound 2 µM), 1.06; in test [3] (first compound 0.02 µM), 0.4; in test [3] (first compound 0.06325 µM), 0.457; in test [3] (first compound 0.2 µM), 0.466; in test [3] (first compound 2 µM), 0.369. Besides, the relative viability is 0.167 in test [4] (first compound 0.005 µM); 0.19 in test [4] (first compound 0.01581 µM); 0.197 in test [4] (first compound 0.05 µM); 0.149 in test [4] (first compound 0.1581 µM); 0.202 in test [4] (first compound 0.5 µM).

Consider NCI-H520, for which the relative viability amounted to 0.747 in test [1] (first compound 0.02 µM); 0.746 in test [1] (first compound 0.06325 µM); 0.64 in test [1] (first compound 0.2 µM); 0.797 in test [1] (first compound 2 µM); 0.825 in test [2] (first compound 0.02 µM); 0.879 in test [2] (first compound 0.2 µM). Besides, the relative viability worked out at 0.864 in test [2] (first compound 0.6325 µM); 0.825 in test [2] (first compound 2 µM); 0.382 in test [3] (first compound 0.02 µM); 0.383 in test [3] (first compound 0.06325 µM); 0.361 in test [3] (first compound 0.2 µM); 0.33 in test [3] (first compound 2 µM). Further, the relative viability in test [4] (first compound 0.005 µM) is 0.183; in test [4] (first compound 0.01581 µM), 0.217; in test [4] (first compound 0.05 µM) it was 0.206; in test [4] (first compound 0.1581 µM) it was 0.237; in test [4] (first compound 0.5 µM) it was 0.161.

Regarding NCI-H647, the relative viability came to 0.456 in test [1] (first compound 0.02 µM); 0.535 in test [1] (first compound 0.06325 µM); 0.446 in test [1] (first compound 0.2 µM); 0.399 in test [1] (first compound 2 µM); 1.32 in test [2] (first compound 0.02 µM); 1.58 in test [2] (first compound 0.2 µM). Moreover, the relative viability in test [2] (first compound 0.6325 µM) is 1.14; in test [2] (first compound 2 µM), 1.21; in test [3] (first compound 0.02 µM), 0.616; in test [3] (first compound 0.06325 µM), 0.492; in test [3] (first compound 0.2 µM) it was 0.544; in test [3] (first compound 2 µM), 0.236. Moreover, the relative viability amounted to 0.334 in test [4] (first compound 0.005 µM); 0.385 in test [4] (first compound 0.01581 µM); 0.305 in test [4] (first compound 0.05 µM); 0.374 in test [4] (first compound 0.1581 µM); 0.538 in test [4] (first compound 0.5 µM).
